Results reported in ChEMBL document CHEMBL1671859, “bla(IMP-4) in different genetic contexts in Enterobacteriaceae isolates from Australia” (2008).
In brackets after ≈: the same amount, converted by molar mass.

Key:
Format in all cases: functional
[1] = system: Serratia marcescens; assay: Antibacterial activity against Serratia marcescens isolate Sm220 harboring IncA/C plasmid and blaIMP-4-qacG2-aacA4-catB3 array by Etest method in presence of clavulanic acid
[2] = system: Klebsiella pneumoniae; assay: Antibacterial activity against Klebsiella pneumoniae isolate Kp149 harboring IncA/C plasmid and blaIMP-4-qacG2-aacA4-catB3 array by Etest method in presence of clavulanic acid
[3] = system: Klebsiella pneumoniae; assay: Antibacterial activity against Klebsiella pneumoniae Kp3799 transconjugant harboring IncL/M plasmid and blaIMP-4-qacG2-aacA4-catB3 array by Etest method in presence of clavulanic acid
[4] = system: Serratia marcescens; assay: Antibacterial activity against Serratia marcescens isolate Sm201 harboring IncA/C plasmid and blaIMP-4-qacG2-aacA4-catB3 array by Etest method in presence of clavulanic acid
[5] = system: Escherichia coli; assay: Antibacterial activity against Escherichia coli isolate Ec9381 harboring IncL/M plasmid and blaIMP-4-qacG2-aacA4-catB3 array by Etest method in presence of clavulanic acid
[6] = system: Klebsiella oxytoca; assay: Antibacterial activity against Klebsiella oxytoca Ko0426 transconjugant harboring IncL/M plasmid and blaIMP-4-qacG2-aacA4-catB3 array by Etest method in presence of clavulanic acid
[7] = system: Enterobacter cloacae; assay: Antibacterial activity against Enterobacter cloacae El3518 transconjugant harboring IncL/M plasmid and blaIMP-4-qacG2-aacA4-catB3 array by Etest method in presence of clavulanic acid
[8] = system: Escherichia coli; assay: Antibacterial activity against Escherichia coli isolate Ec221 harboring IncA/C plasmid and blaIMP-4-qacG2-aacA4-catB3 array by Etest method in presence of clavulanic acid
[9] = system: Klebsiella pneumoniae; assay: Antibacterial activity against Klebsiella pneumoniae isolate Kp211 harboring IncA/C plasmid and blaIMP-4-qacG2-aacA4-catB3 array by Etest method in presence of clavulanic acid
[10] = system: Citrobacter amalonaticus; assay: Antibacterial activity against Citrobacter amalonaticus isolate Ca3927 harboring IncL/M plasmid and blaIMP-4-qacG2-aacA4-catB3 array by Etest method in presence of clavulanic acid
[11] = system: Serratia marcescens; assay: Antibacterial activity against Serratia marcescens isolate Sm2723 harboring IncL/M plasmid and blaIMP-4-qacG2-aacA4-catB3 array by Etest method in presence of clavulanic acid
[12] = system: Klebsiella pneumoniae; assay: Antibacterial activity against Klebsiella pneumoniae isolate Kp38045 harboring IncL/M plasmid and blaIMP-4-qacG2-aacA4-catB3 array by Etest method in presence of clavulanic acid
[13] = system: Klebsiella oxytoca; assay: Antibacterial activity against Klebsiella oxytoca isolate Ko238 harboring IncA/C plasmid and blaIMP-4-qacG2-aacA4-catB3 array by Etest method in presence of clavulanic acid
[14] = system: Escherichia coli; assay: Antibacterial activity against Escherichia coli Ec221 transconjugant harboring IncA/C plasmid and blaIMP-4-qacG2-aacA4-catB3 array by Etest method in presence of clavulanic acid
[15] = system: Morganella morganii; assay: Antibacterial activity against Morganella morganii isolate Mm1229 harboring IncL/M plasmid and blaIMP-4-qacG2-aacA4-catB3 array by Etest method in presence of clavulanic acid
[16] = system: Klebsiella pneumoniae; assay: Antibacterial activity against Klebsiella pneumoniae isolate Kp1945 harboring IncL/M plasmid and blaIMP-4-qacG2-aacA4-catB3 and dfrA12-orfF-aadA2 arrays by Etest method
[17] = system: Serratia marcescens; assay: Antibacterial activity against Serratia marcescens isolate Sm2723 harboring IncL/M plasmid and blaIMP-4-qacG2-aacA4-catB3 array by Etest method
[18] = system: Acinetobacter; assay: Antibacterial activity against Acinetobacter isolate A74510 harboring blaIMP-4-qacG2-aacA4-catB3 array by Etest method
[19] = system: Klebsiella pneumoniae; assay: Antibacterial activity against Klebsiella pneumoniae isolate Kp1239 harboring IncL/M plasmid and blaIMP-4-qacG2-aacA4-catB3 array by Etest method
[20] = system: Citrobacter youngae; assay: Antibacterial activity against Citrobacter youngae CyB38 transconjugant harboring blaIMP-4-qacG2-aacA4-catB3 array by Etest method
[21] = system: Klebsiella oxytoca; assay: Antibacterial activity against Klebsiella oxytoca Ko1156 transconjugant harboring IncL/M plasmid and blaIMP-4-qacG2-aacA4-catB3 array by Etest method
[22] = system: Klebsiella pneumoniae; assay: Antibacterial activity against Klebsiella pneumoniae isolate Kp38045 harboring IncL/M plasmid and blaIMP-4-qacG2-aacA4-catB3 array by Etest method
[23] = system: Morganella morganii; assay: Antibacterial activity against Morganella morganii isolate Mm1229 harboring IncL/M plasmid and blaIMP-4-qacG2-aacA4-catB3 array by Etest method
[24] = system: Escherichia coli; assay: Antibacterial activity against Escherichia coli isolate Ec211 harboring IncA/C plasmid and blaIMP-4-qacG2-aacA4-catB3 array by Etest method
[25] = system: Serratia marcescens; assay: Antibacterial activity against Serratia marcescens isolate Sm220 harboring IncA/C plasmid and blaIMP-4-qacG2-aacA4-catB3 array by Etest method
[26] = system: Citrobacter freundii; assay: Antibacterial activity against Citrobacter freundii isolate Cf1614 harboring IncL/M plasmid and blaIMP-4-qacG2-aacA4-catB3 array by Etest method
[27] = system: Klebsiella pneumoniae; assay: Antibacterial activity against Klebsiella pneumoniae Kp2730 transconjugant harboring IncL/M plasmid and blaIMP-4-qacG2-aacA4-catB3 and dfrA12-orfF-aadA2 arrays by Etest method
[28] = system: Serratia marcescens; assay: Antibacterial activity against Serratia marcescens Sm265 transconjugant harboring IncA/C plasmid and blaIMP-4-qacG2-aacA4-catB3 array by Etest method
[29] = system: Klebsiella oxytoca; assay: Antibacterial activity against Klebsiella oxytoca isolate Ko238 harboring IncA/C plasmid and blaIMP-4-qacG2-aacA4-catB3 array by Etest method
[30] = system: Enterobacter cloacae; assay: Antibacterial activity against Enterobacter cloacae isolate El1573 harboring IncL/M plasmid and blaIMP-4-qacG2-aacA4-catB3 array by Etest method
[31] = system: Acinetobacter baumannii; assay: Antibacterial activity against Acinetobacter baumannii isolate AbN450 harboring […]-qacG2-aacA4-catB3 array by Etest method
[32] = system: Klebsiella pneumoniae; assay: Antibacterial activity against Klebsiella pneumoniae Kp204 transconjugant harboring IncA/C plasmid and blaIMP-4-qacG2-aacA4-catB3 array by Etest method
[33] = system: Klebsiella pneumoniae; assay: Antibacterial activity against Klebsiella pneumoniae Kp1239 transconjugant harboring IncL/M plasmid and blaIMP-4-qacG2-aacA4-catB3 array by Etest method
[34] = system: Escherichia coli; assay: Antibacterial activity against Escherichia coli Ec221 transconjugant harboring IncA/C plasmid and blaIMP-4-qacG2-aacA4-catB3 array by Etest method
[35] = system: Klebsiella pneumoniae; assay: Antibacterial activity against Klebsiella pneumoniae Kp38009 transconjugant harboring IncL/M plasmid and blaIMP-4-qacG2-aacA4-catB3 array by Etest method
[36] = system: Klebsiella pneumoniae; assay: Antibacterial activity against Klebsiella pneumoniae Kp38045 transconjugant harboring IncL/M plasmid and blaIMP-4-qacG2-aacA4-catB3 array by Etest method
[37] = system: Klebsiella pneumoniae; assay: Antibacterial activity against Klebsiella pneumoniae isolate Kp2730 harboring IncL/M plasmid and blaIMP-4-qacG2-aacA4-catB3 and dfrA12-orfF-aadA2 arrays by Etest method
[38] = system: Citrobacter koseri; assay: Antibacterial activity against Citrobacter koseri isolate Ck211 harboring IncA/C plasmid and blaIMP-4-qacG2-aacA4-catB3 array by Etest method
[39] = system: Morganella morganii; assay: Antibacterial activity against Morganella morganii isolate Mm38009 harboring IncL/M plasmid and blaIMP-4-qacG2-aacA4-catB3 array by Etest method

CC1(C)S[C@@H]2[C@H](NC(=O)[C@H](N)c3ccc(O)cc3)C(=O)N2[C@H]1C(=O)O [AMOXICILLIN]
MIC [1]: > 16 µg/mL
MIC [2]: > 16 µg/mL
MIC [3]: > 16 µg/mL
MIC [4]: > 16 µg/mL
MIC [5]: > 16 µg/mL
MIC [6]: > 16 µg/mL
MIC [7]: > 16 µg/mL
MIC [8]: > 16 µg/mL
MIC [9]: > 16 µg/mL
MIC [10]: > 16 µg/mL
MIC [11]: > 16 µg/mL
MIC [12]: > 16 µg/mL
MIC [13]: > 16 µg/mL
MIC [14]: > 16 µg/mL
MIC [15]: > 16 µg/mL

CO/N=C(\C(=O)N[C@@H]1C(=O)N2C(C(=O)O)=C(COC(C)=O)CS[C@H]12)c1csc(N)n1 [CEFOTAXIME]
MIC [16]: > 32 µg/mL
MIC [17]: > 32 µg/mL
MIC [18]: > 32 µg/mL
MIC [19]: > 32 µg/mL
MIC [20]: > 32 µg/mL
MIC [21]: 16 µg/mL (≈ 35.1 µM)
MIC [22]: 32 µg/mL (≈ 70.3 µM)
MIC [23]: > 32 µg/mL
MIC [24]: > 32 µg/mL
MIC [25]: > 32 µg/mL
MIC [26]: > 32 µg/mL
MIC [27]: 32 µg/mL (≈ 70.3 µM)
MIC [28]: > 32 µg/mL
MIC [29]: > 32 µg/mL
MIC [30]: > 32 µg/mL
MIC [31]: > 32 µg/mL
MIC [32]: > 32 µg/mL
MIC [33]: 32 µg/mL (≈ 70.3 µM)
MIC [34]: 32 µg/mL (≈ 70.3 µM)
MIC [35]: 32 µg/mL (≈ 70.3 µM)
MIC [36]: 32 µg/mL (≈ 70.3 µM)
MIC [37]: > 32 µg/mL
MIC [38]: > 32 µg/mL
MIC [39]: 32 µg/mL (≈ 70.3 µM)

C[C@@H](O)[C@H]1C(=O)N2C(C(=O)O)=C(SCCNC=N)C[C@H]12 [IMIPENEM ANHYDROUS]
MIC [16]: 8 µg/mL (≈ 26.7 µM)
MIC [17]: 1.5 µg/mL (≈ 5.01 µM)
MIC [18]: > 8 µg/mL
MIC [19]: > 32 µg/mL
MIC [20]: 4 µg/mL (≈ 13.4 µM)
MIC [21]: ≤ 1 µg/mL
MIC [22]: 0.75 µg/mL (≈ 2.51 µM)
MIC [23]: 4 µg/mL (≈ 13.4 µM)
MIC [24]: 4 µg/mL (≈ 13.4 µM)
MIC [25]: > 8 µg/mL
MIC [26]: 4 µg/mL (≈ 13.4 µM)
MIC [27]: 2 µg/mL (≈ 6.68 µM)
MIC [28]: 2 µg/mL (≈ 6.68 µM)
MIC [29]: 8 µg/mL (≈ 26.7 µM)
MIC [30]: 8 µg/mL (≈ 26.7 µM)
MIC [31]: > 8 µg/mL
MIC [32]: 4 µg/mL (≈ 13.4 µM)
MIC [33]: 2 µg/mL (≈ 6.68 µM)
MIC [34]: 4 µg/mL (≈ 13.4 µM)
MIC [35]: ≤ 1 µg/mL
MIC [36]: 2 µg/mL (≈ 6.68 µM)
MIC [37]: 8 µg/mL (≈ 26.7 µM)
MIC [38]: ≤ 1 µg/mL
MIC [39]: 3 µg/mL (≈ 10 µM)

NC[C@H]1O[C@H](O[C@H]2[C@H](O)[C@@H](O[C@H]3O[C@H](CO)[C@@H](O)[C@H](N)[C@H]3O)[C@H](N)C[C@@H]2N)[C@H](N)C[C@@H]1O [TOBRAMYCIN]
MIC [16]: > 8 µg/mL
MIC [17]: > 8 µg/mL
MIC [18]: > 8 µg/mL
MIC [19]: 8 µg/mL (≈ 17.1 µM)
MIC [20]: 8 µg/mL (≈ 17.1 µM)
MIC [21]: 8 µg/mL (≈ 17.1 µM)
MIC [22]: 8 µg/mL (≈ 17.1 µM)
MIC [23]: > 8 µg/mL
MIC [24]: > 8 µg/mL
MIC [25]: > 8 µg/mL
MIC [26]: > 8 µg/mL
MIC [27]: 8 µg/mL (≈ 17.1 µM)
MIC [28]: 8 µg/mL (≈ 17.1 µM)
MIC [29]: 8 µg/mL (≈ 17.1 µM)
MIC [30]: > 8 µg/mL
MIC [31]: > 8 µg/mL
MIC [32]: 8 µg/mL (≈ 17.1 µM)
MIC [33]: 8 µg/mL (≈ 17.1 µM)
MIC [34]: 8 µg/mL (≈ 17.1 µM)
MIC [35]: 8 µg/mL (≈ 17.1 µM)
MIC [36]: 8 µg/mL (≈ 17.1 µM)
MIC [37]: > 8 µg/mL
MIC [38]: 8 µg/mL (≈ 17.1 µM)
MIC [39]: 4 µg/mL (≈ 8.56 µM)

GENTAMICIN
MIC [16]: > 8 µg/mL
MIC [17]: > 8 µg/mL
MIC [18]: > 8 µg/mL
MIC [19]: > 8 µg/mL
MIC [20]: < 2 µg/mL
MIC [21]: > 8 µg/mL
MIC [22]: > 8 µg/mL
MIC [23]: > 8 µg/mL
MIC [24]: > 8 µg/mL
MIC [25]: > 8 µg/mL
MIC [26]: > 8 µg/mL
MIC [27]: > 8 µg/mL
MIC [28]: < 2 µg/mL
MIC [29]: 4 µg/mL
MIC [30]: > 8 µg/mL
MIC [31]: > 8 µg/mL
MIC [32]: < 2 µg/mL
MIC [33]: > 8 µg/mL
MIC [34]: < 2 µg/mL
MIC [35]: > 8 µg/mL
MIC [36]: > 8 µg/mL
MIC [37]: > 8 µg/mL
MIC [38]: > 8 µg/mL
MIC [39]: > 8 µg/mL
